Assays:
MYC protein = MYC protein level by immunoblot in K562 cells treated with JQ1; assay type: cell-based; conditions: 1 uM JQ1 for 6 h
Experimental: (§1) FIGS. 4A-4C show TRoUT-FISH identifies MYC and BRD4 as regulators of glycolysis. FIG. 4A) TRoUT-FISH data from ENO1 and PGK1 screens. B,C) K562 cells were treated with 1 uM JQ1 for 6 h. FIG. 4B) MYC protein level measured by immunoblot and FIG. 4C) transcripts measured by qPCR. **p<0.01, ****p<0.0001 T-test.
(§2) First, TRoUT-FISH experiments were performed assaying the regulation of ENO1 and PGK1 in K562 cells (FIG. 4A). […] MYC is a well-characterized activator of glycolytic gene expression, and as such served as an internal positive control. BRD4 is a member of the bromodomain and extraterminal domain (BET) family of proteins and is known to regulate MYC at the transcript level.

MYC transcript = MYC transcript by qPCR in K562 cells treated with JQ1; assay type: cell-based; conditions: 1 uM JQ1 for 6 h
Experimental: as §1, §2

ENO1 transcript = ENO1 transcript by qPCR in K562 cells treated with JQ1; assay type: cell-based; conditions: 1 uM JQ1 for 6 h
Experimental: as §1, §2

PGK1 transcript = PGK1 transcript by qPCR in K562 cells treated with JQ1; assay type: cell-based; conditions: 1 uM JQ1 for 6 h
Experimental: as §1, §2

ERRFI1 = conditions: HCT116 cells treated with JQ1, reprocessed RNA-seq data; cited from earlier work
p53 protein = p53 protein level after Nutlin-3a treatment of HCT116 cells; assay type: cell-based; conditions: HCT116 cells (wildtype for TP53)
From the text: (§3) FIGS. 3A-3D show TRoUT-FISH positively identifies known mechanisms of gene regulation. Treatment with Nutlin-3a FIG. 3A) stabilizes p53 protein and FIG. 3B) induces CDKN1A transcription. FIG. 3C) FISH and flow cytometry detects drug induced changes in CDKN1A mRNA levels. FIG. 3D) MAGeCK analysis of Nutlin-3a TRoUT-FISH with CDKN1A as the elucidator. ****p<0.0001 T-test.
(§4) The small molecule Nutlin-3a, which inhibits the interaction between MDM2 and p53 and, in doing so, prevents the proteolytic degradation of p53 and permits activation of downstream targets such as CDKN1A, has been used. […] These changes were then assayed using FISH coupled with flow cytometry (FIG. 2). […] A CRISPR screen was performed in HCT116 cells stably expressing Cas9 with a small library targeting ˜1500 transcription factors, including ten sgRNAs against TP53. After acute selection, cells were treated with vehicle or Nutlin-3a and the transcript abundance of CDKN1A was determined by FISH. CDKN1Alow and CDKN1A high populations were sorted by flow cytometry (e.g. FACS), isolated genomic DNA, and sequenced sgRNAs (FIG. 2). This screen positively identified TP53 as the critical mediator of Nutlin-3a induced CDKN1A expression ([…]).

CDKN1A transcript = CDKN1A transcript after Nutlin-3a treatment of HCT116 cells; assay type: cell-based; conditions: HCT116 cells (wildtype for TP53)
From the text: as §3, §4

CDKN1A mRNA = experiment: FISH coupled with flow cytometry for CDKN1A mRNA in HCT116 cells; assay type: cell-based
Experimental: as §3
TRoUT-FISH is performed on bulk populations which sidesteps the cost and data sparsity issues common to single cell RNA-seq assays. As TRoUT-FISH experiments are performed without any genetic manipulations prior to CRISPR perturbations, the system is ideally positioned to integrate with other data, including ChIP-seq, ATAC-seq, and ENCODE resources. These other resources provide complementary mechanistic insight of gene regulation. Cells are infected at low MOI with virus encoding a CRISPR library selected based on antibiotic resistance. Cells are cultured for eight days to allow CRISPR editing to occur. […]
The small molecule Nutlin-3a, which inhibits the interaction between MDM2 and p53 and, in doing so, prevents the proteolytic degradation of p53 and permits activation of downstream targets such as CDKN1A, has been used. […] After acute selection, cells were treated with vehicle or Nutlin-3a and the transcript abundance of CDKN1A was determined by FISH. […]

CDKN1A RNA = experiment: MACAREL-FISH barcode recovery with CDKN1A as target RNA; assay type: cell-based; conditions: vehicle versus Nutlin-3a barcoded cells, FACS sorted
From the text: FIG. 11A-C show Method to Associate Compounds with Altered RNA levels via Fluorescent In Situ Hybridization (MACAREL-FISH). FIG. 11A) Schematic of MACAREL-FISH. FIG. 11B) Schematic of sorting strategy. Magenta boxes indicate the sorted population. Low and high populations were sorted from the Mix 50:50 population.
In brief, cells are arrayed in a 96 well plate (FIG. 11A). MACAREL-FISH is amenable to any cell type including: immortalized cancer cell lines, primary cells, patient cells, and organoids. Each well is incubated with a specific compound. Before, during, or after treatment cells are barcoded (FIG. 11A). Cells are then detached from the plate and fixed with paraformaldehyde (PFA) which locks cells in their current state. Cells are then pooled permeabilized and stained with a DNA dye and incubated overnight in hybridization buffer in the presence of specific DNA oligonucleotides that anneal to an RNA of interest. The DNA oligonucleotides are computationally designed genome-wide to ensure specificity for the elucidator. […] Based on the possible sequence space of barcodes and read length on NGS, this approach can be scaled almost ad infinitum.
Cells were treated with either vehicle control or the small molecule Nutlin-3a. […] After sorting, DNA was extracted and barcodes identity and abundance were measured by sequencing.

| Structure (SMILES) | MYC protein level (MYC protein) | MYC transcript level (MYC transcript) | ENO1 transcript level (ENO1 transcript) | PGK1 transcript level (PGK1 transcript) | ERRFI1 levels (ERRFI1) | p53 protein level (p53 protein) | CDKN1A transcript level (CDKN1A transcript) | CDKN1A FISH fluorescence by flow cytometry (CDKN1A mRNA; HCT116 cells, versus control and inactive enantiomer) | CDKN1A FISH signal upon treatment (CDKN1A mRNA; stable TP53 knockout lines) | Effect on CDKN1A RNA abundance (barcode recovery from sorted populations) (CDKN1A RNA) |
| --- | --- | --- | --- | --- | --- | --- | --- | --- | --- | --- |
| Cc1sc2c(c1C)C(c1ccc(Cl)cc1)=N[C@@H](CC(=O)OC(C)(C)C)c1nnc(C)n1-2 [JQ1] | significantly downregulated | significantly downregulated | significantly downregulated | significantly downregulated | reduction in ERRFI1 levels | – | – | – | – | – |
| COc1ccc(C2=N[C@@H](c3ccc(Cl)cc3)[C@@H](c3ccc(Cl)cc3)N2C(=O)N2CCNC(=O)C2)c(OC(C)C)c1 [Nutlin-3a] | – | – | – | – | – | stabilization of p53 protein | induction of CDKN1A transcript | higher fluorescence than either the control or inactive enantiomer | no induction of CDKN1A signal | activator of CDKN1A RNA abundance |

Source: patent US20260092315A1, “COMPOSITIONS AND METHODS FOR DISCOVERING GENE REGULATION” (UNIVERSITY OF UTAH RESEARCH FOUNDATION, priority 2022, published 2026)
